Patent US20210078972A1, “QUINOLINE OR QUINAZOLINE COMPOUND AND APPLICATION THEREOF” (HAIHE BIOPHARMA CO., LTD., priority 2018, published 2021)

Legend:
MV4-11 cells = assay: MV4-11 cell proliferation, CCK-8; assay type: cell-based; settings: Homo sapiens, 72 h, read-out: IC50 of inhibition of proliferation of MV4-11 cells
Procedure: The inhibitory effects of the compounds on the proliferation of MV4-11 cells were detected by a CCK-8 cell counting kit (Dojindo). The specific steps are as follows: MV4-11 cells in the logarithmic phase were seeded into a 96-well culture plate at a suitable density for 90 μL per well. After overnight cultivation, the compounds at different concentrations were added to act for 72 hr, and a solvent control group was set (negative control). After 72 h of the compounds acting on the cells, the effects of the compounds on cell proliferation were detected using the CCK-8 cell counting kit (Dojindo). 10 μL of CCK-8 reagent was added to each well and the plate was placed in an incubator at 37° C. for 2-4 hours. After that, a full-wavelength microplate enzyme-labeling instrument SpectraMax 190 was used to read with a measurement wavelength of 450 nm.
The inhibition rate (%) of the compound on tumor cell growth was calculated by the following formula:
Inhibition rate (%)=(OD control well−OD administration well)/OD control well×100%
The IC50 values were obtained by regression with the four-parameter method using the software attached to the enzyme-labeling instrument.

[1] = tested on: Mixed primary male CD-1 mouse hepatocytes; assay: Metabolism in mouse hepatocytes, UPLC-UV/Q-TOF MS; assay type: in vitro ADME; settings: 180 min
Procedure: In this example, a UPLC-UV/Q-TOF MS method was used to evaluate the differences in the metabolic processes of TL134 in hepatocytes of five species of human, monkey, canine, rat, and mouse. It provides a reference for the selection of preclinical pharmacokinetics and studies on animal species safety evaluation.
The total volume of each incubation sample was 100 μL, the medium was WME medium (pH 7.4), and the incubation sample included hepatocytes with a cell density of 1.0×10^6 cells/mL and TL134 with a final concentration of 3.0 μM; the negative control sample was incubated with thermal-inactivated mixed hepatocytes (without cell counting) of five species of animals and TL134, and the buffer control sample was incubated with WME medium and TL134. All samples were incubated at 37° C. for 180 min, and then 100 μL of ice-cold acetonitrile was added to stop the reaction. The samples were stored at −70° C. for ready to be tested, and all incubation samples were double samples.
Triple TOF 5600′ quadrupole-time-of-flight tandem mass spectrometer (Q-TOF MS), equipped with electrospray ionization source (ESI source) and CDS automatic calibration system, AB SCIEX Company, USA; Acquity UPLC liquid chromatography system, including binary infusion pump, autosampler, column oven, degasser and TUV ultraviolet detector, Waters Company, USA. […]

COc1cc2c(Oc3ccc(NC(=O)c4c(C)n(C)c5ccc(OC(F)(F)F)cc5c4=O)cc3F)ncnc2cc1OCCCN1CCOCC1 [TL-134, N-(3-fluoro-4-((6-methoxy-7-(3-morpholinopropoxy)quinazolin-4-yl)oxy)phenyl)-1,2-dim ethyl-4-oxo-6-(trifluoromethoxy)-1,4-dihydroquinoline-3-carboxamide]
IC50 (MV4-11 cells): < 400 pM
prototype drug metabolized, judging from the UV chromatographic peak areas [1]: ~3.0%
